Assay results from PubChem BioAssay AID1259407 (Chemical Carcinogenesis Research Information System (CCRIS), 2018).
The source made the active and inactive calls. The rule behind the calls is not given here.

Tested on: CCRIS mutagenicity, Ames/micronucleus/aberration tests
Assay: CCRIS mutagenicity studies
[1] = Test System: AMES SALMONELLA TYPHIMURIUM, Strain/Indicator: TA98, Metabolic Activation: NONE, Method: STANDARD PLATE
[2] = Test System: AMES SALMONELLA TYPHIMURIUM, Strain/Indicator: TA100, Metabolic Activation: NONE, Method: STANDARD PLATE
[3] = Test System: AMES SALMONELLA TYPHIMURIUM, Strain/Indicator: TA98, Metabolic Activation: NONE, Method: PREINCUBATION
[4] = Test System: AMES SALMONELLA TYPHIMURIUM, Strain/Indicator: TA100, Metabolic Activation: NONE, Method: PREINCUBATION
[5] = Test System: AMES SALMONELLA TYPHIMURIUM, Strain/Indicator: TA2637, Metabolic Activation: NONE, Method: STANDARD PLATE

## C=C(Cl)C=O
Test System: AMES SALMONELLA TYPHIMURIUM, Strain/Indicator: TA100, Metabolic Activation: NONE, Method: LIQUID INCUBATION
  mutagenic call: active; positive
Test System: AMES SALMONELLA TYPHIMURIUM, Strain/Indicator: TA100, Metabolic Activation: NONE, Method: PREINCUBATION, LIQUID INCUBATION
  mutagenic call: active; positive
Test System: AMES SALMONELLA TYPHIMURIUM, Strain/Indicator: TA1535, Metabolic Activation: NONE, Method: LIQUID INCUBATION
  mutagenic call: active; positive
Test System: AMES SALMONELLA TYPHIMURIUM, Strain/Indicator: TA1535, Metabolic Activation: NONE, Method: PREINCUBATION, LIQUID INCUBATION
  mutagenic call: active; positive

## CCn1cc(C(=O)O)c(=O)c2cc(F)c(N3CCNC(C)C3)c(F)c21 (stereo not given)
[1]
  mutagenic call: inactive; negative
Test System: AMES SALMONELLA TYPHIMURIUM, Strain/Indicator: TA98, Metabolic Activation: RAT, LIVER, S-9, PHENOBARBITAL, Method: STANDARD PLATE
  mutagenic call: inactive; negative
[2]
  mutagenic call: inactive; negative
Test System: AMES SALMONELLA TYPHIMURIUM, Strain/Indicator: TA100, Metabolic Activation: RAT, LIVER, S-9, PHENOBARBITAL, Method: STANDARD PLATE
  mutagenic call: inactive; negative
Test System: AMES SALMONELLA TYPHIMURIUM, Strain/Indicator: TA102, Metabolic Activation: NONE, Method: STANDARD PLATE
  mutagenic call: active; positive
Test System: CHINESE HAMSTER V-79, Strain/Indicator: V-79 (HGPRT)/6-THIOGUANINE, Metabolic Activation: NONE, Method: STANDARD PLATE
  mutagenic call: inactive; negative

## O=C(O)/C(Cl)=C(/CCl)C(=O)O
[3]
  mutagenic call: inactive; negative
[4]
  mutagenic call: inactive; negative
Test System: AMES SALMONELLA TYPHIMURIUM, Strain/Indicator: TA104, Metabolic Activation: NONE, Method: PREINCUBATION
  mutagenic call: inactive; negative

## C[C@H](CCC(=O)NCC(=O)O)[C@H]1CC[C@H]2[C@@H]3[C@@H](O)C[C@@H]4C[C@H](O)CC[C@]4(C)[C@H]3CC[C@]12C
Test System: Ames Salmonella typhimurium, Strain/Indicator: TA98, Metabolic Activation: Rat, Liver, S-9, Aroclor 1254, Method: Plate incorporation
  mutagenic call: inactive; negative

## C1COCCN1
[3]
  mutagenic call: inactive; negative
Test System: AMES SALMONELLA TYPHIMURIUM, Strain/Indicator: TA98, Metabolic Activation: RAT LIVER S-9, PHENOBARBITAL AND BETA-NAPHTHOFLAVONE, Method: PREINCUBATION
  mutagenic call: inactive; negative
Test System: AMES SALMONELLA TYPHIMURIUM, Strain/Indicator: TA98, Metabolic Activation: RAT, LIVER, S-9, PCB, Method: PREINCUBATION
  mutagenic call: inactive; negative
[4]
  mutagenic call: inactive; negative
Test System: AMES SALMONELLA TYPHIMURIUM, Strain/Indicator: TA100, Metabolic Activation: RAT LIVER S-9, PHENOBARBITAL AND BETA-NAPHTHOFLAVONE, Method: PREINCUBATION
  mutagenic call: inactive; negative
Test System: AMES SALMONELLA TYPHIMURIUM, Strain/Indicator: TA100, Metabolic Activation: RAT, LIVER, S-9, PCB, Method: PREINCUBATION
  mutagenic call: inactive; negative
Test System: AMES SALMONELLA TYPHIMURIUM, Strain/Indicator: TA1535, Metabolic Activation: NONE, Method: PREINCUBATION
  mutagenic call: inactive; negative
Test System: AMES SALMONELLA TYPHIMURIUM, Strain/Indicator: TA1535, Metabolic Activation: RAT LIVER S-9, PHENOBARBITAL AND BETA-NAPHTHOFLAVONE, Method: PREINCUBATION
  mutagenic call: inactive; negative
Test System: AMES SALMONELLA TYPHIMURIUM, Strain/Indicator: TA1537, Metabolic Activation: NONE, Method: PREINCUBATION
  mutagenic call: inactive; negative
Test System: AMES SALMONELLA TYPHIMURIUM, Strain/Indicator: TA1537, Metabolic Activation: RAT LIVER S-9, PHENOBARBITAL AND BETA-NAPHTHOFLAVONE, Method: PREINCUBATION
  mutagenic call: inactive; negative
Test System: E.COLI, Strain/Indicator: WP2UVRA, Metabolic Activation: NONE, Method: PREINCUBATION
  mutagenic call: inactive; negative
Test System: E.COLI, Strain/Indicator: WP2UVRA, Metabolic Activation: RAT LIVER S-9, PHENOBARBITAL AND BETA-NAPHTHOFLAVONE, Method: PREINCUBATION
  mutagenic call: inactive; negative

## Nc1[nH]c(=O)nc2c1ncn2[C@H]1C[C@H](O)[C@@H](CO)O1
[4]
  mutagenic call: inactive; negative

## ClCC(CCl)(CCl)CCl
Test System: AMES SALMONELLA TYPHIMURIUM, Strain/Indicator: TA97, Metabolic Activation: NONE, Method: STANDARD PLATE
  mutagenic call: inactive; negative
[1]
  mutagenic call: inactive; negative
Test System: AMES SALMONELLA TYPHIMURIUM, Strain/Indicator: TA98, Metabolic Activation: RAT, LIVER, S-9, AROCLOR, Method: STANDARD PLATE
  mutagenic call: inactive; negative
[2]
  mutagenic call: inactive; negative
Test System: AMES SALMONELLA TYPHIMURIUM, Strain/Indicator: TA100, Metabolic Activation: RAT, LIVER, S-9, AROCLOR, Method: STANDARD PLATE
  mutagenic call: inactive; negative
Test System: AMES SALMONELLA TYPHIMURIUM, Strain/Indicator: TA1535, Metabolic Activation: NONE, Method: STANDARD PLATE
  mutagenic call: inactive; negative
Test System: AMES SALMONELLA TYPHIMURIUM, Strain/Indicator: TA1537, Metabolic Activation: NONE, Method: STANDARD PLATE
  mutagenic call: inactive; negative
Test System: AMES SALMONELLA TYPHIMURIUM, Strain/Indicator: TA1538, Metabolic Activation: NONE, Method: STANDARD PLATE
  mutagenic call: inactive; negative
[5]
  mutagenic call: inactive; negative

## C[C@H]1C=C(C=O)C(C=O)=C[C@]2(O)CC(C)(C)C[C@H]12
[1]
  mutagenic call: active; positive
[2]
  mutagenic call: active; positive
[5]
  mutagenic call: inactive; negative

## OCc1ccnc2ccccc12
Test System: AMES SALMONELLA TYPHIMURIUM, Strain/Indicator: TA100, Metabolic Activation: RAT, LIVER, S-9, Method: PREINCUBATION
  mutagenic call: inactive; negative
